Measured values: paper PMC8351955, “Targeting Mycobacterium tuberculosis response to environmental cues for the development of effective antitubercular drugs” (PLoS Biology, 2021)
Like-named read-outs stand apart in the source and are kept apart here.

What was measured:
[1] = system: CDC1551(rv2390c′::GFP) reporter Mtb strain, response to high [Cl−]; assay: microbe, parasite or virus in culture; format: cell-based, Mycobacterium tuberculosis; conditions: Mycobacterium tuberculosis, 144 h; for activity at 20 µM: read-out: rv2390c'::GFP validation assay NPA% at 20 µM compound
[2] = system: CDC1551(rv1405c′::GFP) reporter Mtb strain; assay: microbe, parasite or virus in culture; format: cell-based, Mycobacterium tuberculosis; conditions: Mycobacterium tuberculosis; for activity at 10 µM: read-out: rv1405c'::GFP secondary assay NPA% at 10 µM compound; for activity at 20 µM: read-out: rv1405c'::GFP secondary assay NPA% at 20 µM compound
[3] = pH 6.4, […], DMSO positive control = 100%, read-out: Primary screen rv2390c'::GFP NPA%
[4] = 10 µM, pH 6.4, 250 mM NaCl, 6 days, read-out: rv2390c'::GFP validation assay NPA% at 10 µM compound

Row | SMILES | activity at 10 µM [1, 3] [%] | activity at 10 µM [1, 4] [%] | activity at 20 µM ([1]; pH 6.4, 250 mM NaCl, 6 days) [%] | activity at 10 µM [2] [%] | activity at 20 µM [2] [%]
1 | O=C(O)c1cc(-c2ccc(N3CCOCC3)cc2)nn1-c1ccc(F)cc1 [RU-0206470, OC(=O)C1=CC(=NN1C1=CC=C(F)C=C1)C1=CC=C(C=C1)N1CCOCC1] | 157 | 111 ± 10.3 | 165 ± 15.9 | 104 ± 4.5 | 158 ± 23.6
2 | Cn1ccc(C(=O)Nc2nc(Sc3ccccc3)ns2)cc1=O [RU-0206593, CN1C=CC(=CC1=O)C(=O)NC1=NC(SC2=CC=CC=C2)=NS1] | 42.6 | 39.2 ± 6.9 | 22.7 ± 6.8 | 42 ± 9.6 | 38.3 ± 17.6
3 | Cn1cccc1C(=O)NS(=O)(=O)c1ccc(C#N)c(Cl)c1 [RU-0207640, CN1C=CC=C1C(=O)NS(=O)(=O)C1=CC(Cl)=C(C=C1)C#N] | 177 | 148 ± 12.2 | 203 ± 22.6 | 175 ± 20 | 357 ± 29.5
4 | C(=C\c1ccccc1)/Cn1nnc(-c2cccs2)n1 [RU-0207924, C(\C=C\C1=CC=CC=C1)N1N=NC(=N1)C1=CC=CS1] | 152 | 114 ± 1.5 | 137 ± 4 | 97.4 ± 8.8 | 125 ± 16.3
5 | CCc1nc(C(=O)Nc2nc(C#N)c(C#N)[nH]2)nn1-c1ccccc1Cl [RU-0208082, CCC1=NC(=NN1C1=C(Cl)C=CC=C1)C(=O)NC1=NC(C#N)=C(N1)C#N] | 309 | 258 ± 15.1 | 380 ± 38.2 | 418 ± 56.2 | 677 ± 106
6 | COC(=O)c1sc(NS(=O)(=O)c2ccc(S(C)(=O)=O)c(F)c2)nc1C [RU-0208648, COC(=O)C1=C(C)N=C(NS(=O)(=O)C2=CC(F)=C(C=C2)S(C)(=O)=O)S1] | 36.7 | 55.2 ± 3.9 | 38.5 ± 6.3 | 45.2 ± 2.1 | 13.7 ± 2.5
7 | CCNC(=O)CSc1ccc2c3c(cccc13)C(=O)c1ccccc1-2 [RU-0209034, CCNC(=O)CSC1=C2C=CC=C3C(=O)C4=C(C=CC=C4)C(C=C1)=C23] | 182 | 128 ± 15.3 | 199 ± 7.5 | 183 ± 12.7 | 401 ± 7.5
8 | O=C(O)c1cc2ccccc2cc1NS(=O)(=O)N1CCCCC1 [RU-0210069, OC(=O)C1=C(NS(=O)(=O)N2CCCCC2)C=C2C=CC=CC2=C1] | 44.6 | 66.4 ± 3.4 | 58.6 ± 5.9 | 52.8 ± 1.5 | 31.2 ± 2.6
9 | COc1ccc(Cl)cc1-c1cc(NC(=O)c2c(C)noc2C)[nH]n1 [RU-0210243, COC1=C(C=C(Cl)C=C1)C1=NNC(NC(=O)C2=C(C)ON=C2C)=C1] | 254 | 211 ± 11.6 | 357 ± 20 | 342.7 ± 3.1 | 737 ± 25.3
10 | Cc1ccc2cc(S(=O)(=O)NCCn3nc(C)c(Cl)c3C)ccc2c1 [RU-0211306, CC1=NN(CCNS(=O)(=O)C2=CC3=C(C=C2)C=C(C)C=C3)C(C)=C1Cl] | 154 | 122 ± 3.2 | 156 ± 2.1 | 84.4 ± 8.8 | 99.4 ± 9.4
11 | CCOC(=O)C(C)Sc1nc2c(cnn2-c2ccccc2)c(=O)[nH]1 (stereo not drawn) [RU-0212119, CCOC(=O)C(C)SC1=NC2=C(C=NN2C2=CC=CC=C2)C(=O)N1] | 34.7 | 48.1 ± 4.6 | 40.2 ± 4.8 | 33.4 ± 2.2 | 14.5 ± 3.4
12 | Cc1oc(C(=O)Nc2nnc(C(F)(F)F)[nH]2)cc1S(=O)(=O)N1CCCC1 [RU-0213804, CC1=C(C=C(O1)C(=O)NC1=NN=C(N1)C(F)(F)F)S(=O)(=O)N1CCCC1] | 31.2 | 54.8 ± 1.2 | 42.3 ± 1 | 39.8 ± 7.2 | 21.3 ± 6
13 | CCCc1ccccc1NC(N)=S [RU-0214166, CCCC1=C(NC(N)=S)C=CC=C1] | 34.1 | 56.8 ± 5.8 | 31.6 ± 12.3 | 61.8 ± 0.5 | 111 ± 15.1
14 | COCCCC(=O)Nc1cccc(NC2CCCC2)c1 [RU-0215502, COCCCC(=O)NC1=CC(NC2CCCC2)=CC=C1] | 216 | 152 ± 5 | 276 ± 16.4 | 342 ± 33.3 | 804 ± 46.8
15 | CC1(C)CC2CC(C)(CN2CC(O)COc2ccc(F)cc2Cl)C1 (stereo not drawn) [RU-0218667, CC12CC(CC(C)(C)C1)N(CC(O)COC1=C(Cl)C=C(F)C=C1)C2] | 154 | 118 ± 1.5 | 173 ± 5.5 | 129 ± 4.5 | 233 ± 4.2
16 | OC1(c2ccccc2)CCN(Cc2cnc3c(-c4ccccc4)cnn3c2)CC1 [RU-0224846, OC1(CCN(CC2=CN3N=CC(=C3N=C2)C2=CC=CC=C2)CC1)C1=CC=CC=C1] | 153 | 118 ± 10.8 | 159 ± 15.9 | 101 ± 18 | 140 ± 37.5

Row | SMILES | activity at 10 µM [1, 3] [%] | activity at 10 µM [1, 4] [%] | activity at 20 µM ([1]; pH 6.4, 250 mM NaCl, 6 days) [%] | activity at 10 µM [2] [%] | activity at 20 µM [2] [%]
17 | CCCC(C)c1nnc(NC(=O)c2nnc3nc(C)cc(C)n23)s1 (stereo not drawn) [RU-0225311, CCCC(C)C1=NN=C(NC(=O)C2=NN=C3N=C(C)C=C(C)N23)S1] | 155 | 116 ± 6.7 | 195 ± 6.5 | 110 ± 9.7 | 137 ± 16.9
18 | CC(C)Cc1cc(C(=O)N2CCOC(CCCc3ccccc3)C2)[nH]n1 (stereo not drawn) [RU-0230474, CC(C)CC1=NNC(=C1)C(=O)N1CCOC(CCCC2=CC=CC=C2)C1] | 198 | 118 ± 12.7 | 229 ± 26.9 | 98.4 ± 7.5 | 172 ± 14.2
19 | CCCn1ncc(C(=O)NC(C)C(=O)Nc2ccc(F)cc2C)c1C (stereo not drawn) [RU-0232065, CCCN1N=CC(C(=O)NC(C)C(=O)NC2=CC=C(F)C=C2C)=C1C] | 154 | 119 ± 6.6 | 147 ± 14.2 | 91.3 ± 9.4 | 98.3 ± 13
20 | NC(=O)c1cc2c(cc1-c1cccc(C(F)(F)F)c1)OCO2 [RU-0234167, NC(=O)C1=CC2=C(OCO2)C=C1C1=CC=CC(=C1)C(F)(F)F] | 343 | 221 ± 6.7 | 383 ± 10.4 | 201 ± 15 | 291 ± 18.7
21 | CCCc1oncc1C(=O)NC1CC(=O)N(CCc2ccc(F)cc2)C1 (stereo not drawn) [RU-0245406, CCCC1=C(C=NO1)C(=O)NC1CN(CCC2=CC=C(F)C=C2)C(=O)C1] | 172 | 126 ± 7.5 | 163 ± 6.6 | 87.7 ± 9 | 114 ± 25.7
22 | Clc1cccc2ccc(CN3CCn4cncc4C3)nc12 [RU-0247165, ClC1=C2N=C(CN3CCN4C=NC=C4C3)C=CC2=CC=C1] | 219 | 132 ± 7.5 | 317 ± 6.7 | 226 ± 14.7 | 688.7 ± 3.5
23 | COc1ccc(F)c(-c2cc3c(cc2C(N)=O)OCO3)c1 [RU-0251853, COC1=CC(=C(F)C=C1)C1=CC2=C(OCO2)C=C1C(N)=O] | 182 | 147 ± 6.1 | 276 ± 8 | 147 ± 32 | 296 ± 65.4
24 | CCNC(=O)c1ccccc1OCc1nc(-c2ccc3c(c2)OCO3)no1 [RU-0257147, CCNC(=O)C1=C(OCC2=NC(=NO2)C2=CC3=C(OCO3)C=C2)C=CC=C1] | 154 | 92.6 ± 5.8 | 127 ± 7.2 | 82 ± 5.5 | –
25 | O=C(c1nccc2ccccc12)N1CCN(CC2CCCC2)CC1 [RU-0257267, O=C(N1CCN(CC2CCCC2)CC1)C1=C2C=CC=CC2=CC=N1] | 199 | 140.3 ± 0.6 | 254 ± 8.7 | 267 ± 23 | 822 ± 58.1
26 | CC(C)c1cc(C2CCN(C(=O)c3nc(C(C)C)cs3)CC2)[nH]n1 [RU-0259583, CC(C)C1=CSC(=N1)C(=O)N1CCC(CC1)C1=CC(=NN1)C(C)C] | 156 | 103 ± 2.6 | 130 ± 8.6 | 81.6 ± 6.6 | 99.6 ± 21.4
27 | COc1ccc2c(CN3CCOCC(CN(C)C)C3)cn(C)c2c1 (stereo not drawn) [RU-0260647, COC1=CC=C2C(CN3CCOCC(CN(C)C)C3)=CN(C)C2=C1] | 162 | 114 ± 3.2 | 130 ± 7.6 | 112 ± 2.5 | 130 ± 3.6
28 | O=C(Cc1ccc2c(c1)CCC2)NCc1ccccc1F [RU-0268882, FC1=C(CNC(=O)CC2=CC3=C(CCC3)C=C2)C=CC=C1] | 175 | 130 ± 7 | 176 ± 16.5 | 103 ± 10.5 | 105 ± 20.7
29 | Cc1ccc(NC(=O)[C@@H]2CCCN2S(=O)(=O)c2ccccc2F)cc1 [RU-0270461, CC1=CC=C(NC(=O)[C@@H]2CCCN2S(=O)(=O)C2=C(F)C=CC=C2)C=C1] | 151 | 116 ± 6.6 | 168 ± 4 | 98.1 ± 2.7 | 159 ± 7.6
30 | COc1ccc(NCc2ccc(OC)c(Br)c2)cn1 [RU-0270711, COC1=NC=C(NCC2=CC(Br)=C(OC)C=C2)C=C1] | 162 | 135 ± 4 | 292 ± 6.7 | 227 ± 8.7 | 603 ± 10.5
31 | Cc1ccc(-n2nc(C)c3c(=O)[nH]c(C(F)(F)F)nc32)cc1 [RU-0271306, CC1=NN(C2=C1C(=O)NC(=N2)C(F)(F)F)C1=CC=C(C)C=C1] | 40.8 | 30.6 ± 2.4 | 36.6 ± 3.4 | 37.3 ± 1.3 | 11.5 ± 4.6
32 | O=S(=O)(Nc1c(F)cccc1F)c1c(Cl)cccc1Cl [RU-0271471, FC1=CC=CC(F)=C1NS(=O)(=O)C1=C(Cl)C=CC=C1Cl] | 26 | 46.1 ± 5.6 | 25.7 ± 1.9 | 32.2 ± 2 | 13.8 ± 3.7
